Source: US7235585B2 (priority 2002, dated 2007)
pIC50: −log10 of the molar value. Where two headings read alike, the source gives them in different places.

Assays:
[1] = tested on: WiDr cells (a colon carcinoma cell line) engineered for stable expression of β-galactosidase (β-gal); conditions: cited from earlier work
[2] = tested on: WiDr cells (a colon carcinoma cell line) engineered for stable expression of stCPG2(Q)3; conditions: cited from earlier work
[3] = tested on: WiDr cells (a colon carcinoma cell line) engineered for stable expression of stCPG2(Q)3; assay: cells; assay type: cell-based; conditions: for pIC50: read-out: IC50 stCPG2(Q)3
[4] = tested on: WiDr cells (a colon carcinoma cell line) engineered for stable expression of β-galactosidase (β-gal); assay: cells; assay type: cell-based; conditions: read-out: IC50 LacZ
[5] = buffer; for T1/2 prodrug: pH 7.3
CPG2 = CPG2 (Pseudomonas sp., UniProt P06621); assay type: biochemical, Pseudomonas R16
Chain of CPG2 (P06621 23-415): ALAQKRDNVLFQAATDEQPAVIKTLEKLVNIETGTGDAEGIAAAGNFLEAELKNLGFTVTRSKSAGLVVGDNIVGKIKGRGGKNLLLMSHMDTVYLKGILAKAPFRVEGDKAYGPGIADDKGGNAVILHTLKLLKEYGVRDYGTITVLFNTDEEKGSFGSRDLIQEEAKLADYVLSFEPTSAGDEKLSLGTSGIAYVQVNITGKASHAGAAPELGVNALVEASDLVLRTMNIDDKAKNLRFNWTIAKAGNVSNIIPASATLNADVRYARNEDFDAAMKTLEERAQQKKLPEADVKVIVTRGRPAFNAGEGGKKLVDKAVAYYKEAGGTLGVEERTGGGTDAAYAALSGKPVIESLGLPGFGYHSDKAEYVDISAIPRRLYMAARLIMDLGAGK

SMILES | pIC50 [1] | pIC50 [2] | Degree of activation (fold) [3] [fold] | pIC50 [4] | T1/2 prodrug [5] [min] | differential in the transfected WiDr cell line [3] [fold] | differentials in the WiDr cell lines compared with CMDA [3] | pIC50 [3] | T1/2 prodrug/T1/2 drug [5] | kcat (CPG2) [s⁻¹] | pIC50 ([4]; Homo sapiens, WiDr) | pIC50 ([3]; Homo sapiens, WiDr)
CS(=O)(=O)OCCN(CCCl)c1ccc(C(=O)N[C@@H](CCC(=O)O)C(=O)O)cc1 [CMDA, N-{4-[(2-chloroethyl)(2-mesyloxyethyl)amino]benzoyl}-L-glutamic acid] | 2.49 | 4.00 | 32.3 | – | – | – | – | – | – | – | – | –
O=C(O)CCC(NC(=O)Nc1ccc(COC(=O)Nc2ccccc2N(CCI)CCI)cc1)C(=O)O (centres unmarked) [CP-1] | – | – | 49.7 | 3.83 | 2.7 | 50 | better than those of CMDA | 5.52 | – | – | – | –
O=C(O)CCC(NC(=O)Nc1ccc(COC(=O)Nc2ccc(N(CCI)CCI)cc2)cc1)C(=O)O (centres unmarked) [CP-2] | – | – | 101.6 | 3.75 | 0.97 | – | better than those of CMDA | 5.74 | 1.9 | – | – | –
O=C(O)CCC(NC(=O)Nc1ccc(COC(=O)Nc2ccccc2N(CCBr)CCBr)cc1)C(=O)O (centres unmarked) [CP-3] | – | – | 24.9 | 3.93 | 3.0 | 25 | – | 5.33 | 3.5 | – | – | –
O=C(O)CCC(NC(=O)Nc1ccc(COC(=O)Nc2ccc(N(CCBr)CCBr)cc2)cc1)C(=O)O (centres unmarked) [CP-4] | – | – | 66.6 | 3.69 | 0.85 | – | better than those of CMDA | 5.51 | 0.4 | – | – | –
O=C(O)CCC(NC(=O)Nc1ccc(COC(=O)Nc2ccccc2N(CCCl)CCCl)cc1)C(=O)O (centres unmarked) [CP-5] | – | – | 4.7 | 4.68 | 107.5 | – | – | 5.35 | 13.9 | 2.92 | – | –
O=C(O)CCC(NC(=O)Nc1ccc(COC(=O)Nc2ccc(N(CCCl)CCCl)cc2)cc1)C(=O)O (centres unmarked) [CP-6] | – | – | – | – | – | – | – | – | – | 10 to 50 | – | –
CS(=O)(=O)OCCN(CCOS(C)(=O)=O)c1ccccc1NC(=O)OCc1ccc(OC(=O)NC(CCC(=O)O)C(=O)O)cc1 (centres unmarked) [CP-7] | – | – | 5.2 | 3.68 | 10.8 | – | – | 4.40 | – | – | – | –
O=C(O)CCC(NC(=O)Oc1ccc(COC(=O)Nc2ccccc2N(CCI)CCI)cc1)C(=O)O (centres unmarked) [CP-8] | – | – | 3.9 | 4.13 | 2.1 | – | – | 4.72 | – | – | – | –
O=C(O)CCC(NC(=O)Oc1ccc(COC(=O)Nc2ccc(N(CCI)CCI)cc2)cc1)C(=O)O (centres unmarked) [CP-9] | – | – | 42.5 | 4.27 | 0.98 | – | better than those of CMDA | 5.89 | 2.0 | – | – | –
O=C(O)CCC(NC(=O)Oc1ccc(COC(=O)Nc2ccccc2N(CCBr)CCBr)cc1)C(=O)O (centres unmarked) [CP-10] | – | – | 1.9 | 3.74 | 3.47 | – | – | 4.02 | 3.5 | – | – | –
O=C(O)CCC(NC(=O)Oc1ccc(COC(=O)Nc2ccc(N(CCBr)CCBr)cc2)cc1)C(=O)O (centres unmarked) [CP-11] | – | – | 38.3 | 4.00 | 0.9 | – | better than those of CMDA | 5.59 | 0.4 | – | – | –
O=C(O)CCC(NC(=O)Oc1ccc(COC(=O)Nc2ccccc2N(CCCl)CCCl)cc1)C(=O)O (centres unmarked) [CP-12] | – | – | 1.4 | 4.42 | 146.3 | – | – | 4.55 | 11.9 | 4.27 | – | –
O=C(O)CCC(NC(=O)Oc1ccc(COC(=O)Nc2ccc(N(CCCl)CCCl)cc2)cc1)C(=O)O (centres unmarked) [CP-13] | – | – | – | – | – | – | – | – | – | <10 | – | –
CS(=O)(=O)OCCN(CCCl)c1ccccc1NC(=O)OCc1ccc(OC(=O)NC(CCC(=O)O)C(=O)O)cc1 (centres unmarked) [CP-14] | – | – | 5.2 | 3.83 | 10.0 | – | – | 4.55 | – | – | – | –
CN(C(=O)OCc1ccc(OC(=O)NC(CCC(=O)O)C(=O)O)cc1)c1ccc(N(CCI)CCI)cc1 (centres unmarked) [CP-15] | – | – | 8.3 | 4.67 | 4.6 | – | – | 5.59 | 7.7 | – | – | –
CN(C(=O)OCc1ccc(OC(=O)NC(CCC(=O)O)C(=O)O)cc1)c1ccc(N(CCBr)CCBr)cc1 (centres unmarked) [CP-16] | – | – | 7.5 | 4.57 | 2.7 | – | – | 5.44 | 1.0 | – | – | –
CN(C(=O)OCc1ccc(OC(=O)NC(CCC(=O)O)C(=O)O)cc1)c1ccc(N(CCCl)CCCl)cc1 (centres unmarked) [CP-17] | – | – | 11.5 | 4.71 | 173.6 | – | – | 5.77 | 20.6 | 4.32 | – | –
CN(C(=O)OCc1ccc(NC(=O)NC(CCC(=O)O)C(=O)O)cc1)c1ccc(N(CCI)CCI)cc1 [Compound P-1, 4-{N-[4′-bis(2″-iodoethyl)amino-phenyl]-N-methyl-carbamoyl-oxymethyl}-phenyl-carbamoyl-L-glutamic acid] | – | – | 124.0 | – | – | – | better than those of CMDA | – | 6.5 | – | 3.73 | 5.82
CN(C(=O)OCc1ccc(NC(=O)NC(CCC(=O)O)C(=O)O)cc1)c1ccc(N(CCBr)CCBr)cc1 [Compound P-2, 4-{N-[4′-bis(2″-bromoethyl)amino-phenyl]-N-methyl-carbamoyl-oxymethyl}-phenyl-carbamoyl-L-glutamic acid] | – | – | 81.4 | – | – | – | better than those of CMDA | – | 1.0 | – | 3.48 | 5.39
CN(C(=O)OCc1ccc(NC(=O)NC(CCC(=O)O)C(=O)O)cc1)c1ccc(N(CCCl)CCCl)cc1 [Compound P-3, 4-{N-[4′-bis(2″-chloroethyl)amino-phenyl]-N-methyl-carbamoyl-oxymethyl}-phenyl-carbamoyl-L-glutamic acid] | – | – | 15.9 | – | – | – | – | – | 20.9 | 5.50 | 4.40 | 5.60
